According to patent US5670501A, “N-substituted 9-alkyladenines” (Discovery Therapeutics, Inc., priority 1994, dated 1997):

Columns and labels:
adenosine A1 receptor [1] = biological target: T1, adenosine A1 receptor (Bos taurus, UniProt P28190); experiment: Receptor affinity (radioligand binding), A1, [3H]CHA; design: species or system bovine; conditions: for Selectivity Ratio (A2 Ki /A1 Ki): radioligand binding; for Ki: [3H]CHA, room temperature, 2 hours, tissues listed: bovine caudate, guinea pig cortex, guinea pig striatum (only Example 13 marked guinea pig)
T1 construct: were homogenized with a Brinkman polytron and the membranes were collected by centrifugation; from tissue; host or cells: bovine caudate membranes
T1 sequence (P28190 1-326): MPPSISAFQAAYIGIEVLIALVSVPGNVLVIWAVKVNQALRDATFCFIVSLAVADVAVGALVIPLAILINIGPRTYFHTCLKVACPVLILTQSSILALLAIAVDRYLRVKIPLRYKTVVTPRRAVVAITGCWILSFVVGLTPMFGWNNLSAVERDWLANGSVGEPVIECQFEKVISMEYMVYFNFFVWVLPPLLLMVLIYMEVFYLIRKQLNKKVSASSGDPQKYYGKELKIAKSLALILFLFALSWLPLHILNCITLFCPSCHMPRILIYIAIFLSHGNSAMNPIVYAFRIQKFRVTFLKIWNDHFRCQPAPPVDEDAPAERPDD
Protocol: (§1) 1. Receptor Affinity Experiments (Radioligand Binding)
(§2) Tissues (bovine caudate, guinea pig cortex, guinea pig striatum) were homogenized with a Brinkman polytron and the membranes were collected by centrifugation at 40,000×g at 4° C. for 10 min. The membranes were washed by resuspension and centrifugation, resuspended, and incubated in the presence of 1 U/ml adenosine deaminase for 15-30 min. at 37° C. The membranes were diluted, centrifuged once, and resuspended to a final concentration of 0.5-2 mg protein/ml. Adenosine deaminase (0.1 U/ml) was included in the final resuspension. Assays were initiated by addition of membranes. The compounds of the present invention were subjected to the following experimental conditions: A1 determinations/incubated with [^3 H]CHA at room temperature for 2 hours, A2 determinations/incubated with [^3 H]NECA at room temperature for 1 hour. Assays were terminated by filtration, and the filters were counted in scintillation counters.

adenosine A1 receptor [2] = biological target: T2, adenosine A1 receptor (Cavia porcellus, UniProt P47745); experiment: Receptor affinity (radioligand binding), A1, [3H]CHA, guinea pig tissue; conditions: room temperature, 2 hours, value obtained using guinea pig tissue
T2 construct: from tissue; host or cells: isolated guinea pig left atria
T2 sequence (P47745 1-326): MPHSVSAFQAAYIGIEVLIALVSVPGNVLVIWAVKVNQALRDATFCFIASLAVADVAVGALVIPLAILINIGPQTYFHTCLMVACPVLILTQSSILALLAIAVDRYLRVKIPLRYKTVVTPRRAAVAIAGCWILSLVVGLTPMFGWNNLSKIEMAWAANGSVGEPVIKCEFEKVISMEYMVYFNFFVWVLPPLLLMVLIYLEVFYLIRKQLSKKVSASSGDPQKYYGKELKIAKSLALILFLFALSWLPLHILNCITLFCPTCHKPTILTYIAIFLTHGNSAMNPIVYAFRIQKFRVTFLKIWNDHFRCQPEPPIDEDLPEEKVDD
Protocol: as §1, §2
*This value was obtained using guinea pig tissue.

adenosine A2 receptor = experiment: Receptor affinity (radioligand binding), A2, [3H]NECA; design: species or system bovine / guinea pig; conditions: room temperature, 1 hour
Protocol: as §1, §2

adenosine A1 receptor [3] = biological target: T2, adenosine A1 receptor; experiment: A1 in vitro functional test: negative inotropic response, left atria, antagonism of NECA; type: cell-based, guinea pig; conditions: for Selectivity Ratio (A2 KB /A1 KB): functional; for Kb: guinea pig left atria, electrically evoked twitch, NECA agonist, 31° C, Schild plot, read-out: A1 KB (antagonist dissociation constant)
Protocol: 2. Adenosine--A1 /A2 In Vitro Functional Tests
(A1 Assay: Negative inotropic response)-Guinea pig left atria were placed in organ baths filled with Krebs Henseleit solution gassed with 95% O2 and 5% CO2 and maintained at a temperature of 31° C. An initial resting tension of 1 gm. was placed on each tissue, which was allowed to equilibrate. Atria were stimulated electrically to produce twitch responses. A dose-response curve for the inhibition of the electrically-evoked twitch response was obtained by cumulative addition of the adenosine agonist […]. After the washout of the tissue, a fixed concentration of test compound was added and the tissue allowed to equilibrate for 1 hr. before cumulative additions of the adenosine agonist 5'-N-ethylcarboxamidoadenosine (NECA) to generate a new dose response curve. This procedure was repeated with different fixed concentrations of test compounds to generate a family of dose response curves. Schild plots were constructed from the resultant concentration-effect curves, and KB (antagonist dissociation constant) values were obtained. The results (see Table VII) are expressed as KB values (concentration of test compound such that one-half of the tissue adenosine receptor population is occupied by the test compound).

## CC(C)N(C)c1nc2c(N[C@H]3C[C@H]4CC[C@@H]3C4)ncnc2n1C (relative stereo) [Example 13, (±)-N^6-(endo-2'-norbornyl)-8-isopropylmethylamino-9-methyladenine]
Adenosine A1 receptor [1]
  Selectivity Ratio (A2 Ki /A1 Ki): 166
Adenosine A1 receptor [2]
  Ki: 6.31 nM
Adenosine A2 receptor
  Ki: 1050 nM
Adenosine A1 receptor [3]
  Selectivity Ratio (A2 KB /A1 KB): > 20000
  Kb: 5 nM

## COc1nc2c(N[C@H]3C[C@H]4CC[C@@H]3C4)ncnc2n1C (relative stereo) [Example 4, (±)-N^6-(endo-2'-norbornyl)-8-methoxy-9-methyladenine]
Adenosine A1 receptor [1]
  Ki: 12 nM
  Selectivity Ratio (A2 Ki /A1 Ki): 43
Adenosine A2 receptor
  Ki: 513 nM
Adenosine A1 receptor [3]
  Selectivity Ratio (A2 KB /A1 KB): 250
  Kb: 105 nM

## Cn1cnc2c(N[C@@H]3C[C@H]4C[C@@H]3c3ccccc34)ncnc21 (relative stereo) [Example 39]
Adenosine A1 receptor [1]
  Ki: 468 nM
  Selectivity Ratio (A2 Ki /A1 Ki): 33
Adenosine A2 receptor
  Ki: 15500 nM
Adenosine A1 receptor [3]
  Kb: 28800 nM

## Cn1cnc2c(N[C@H]3C[C@@H]4C[C@H]3C[C@@H]4O)ncnc21 (relative stereo) [Example 21, (±)-N^6-[endo-2'-(endo-5'-hydroxy)-norbornyl]-9-methyladenine]
Adenosine A1 receptor [1]
  Ki: 19.1 nM
  Selectivity Ratio (A2 Ki /A1 Ki): 165
Adenosine A2 receptor
  Ki: 3160 nM
Adenosine A1 receptor [3]
  Selectivity Ratio (A2 KB /A1 KB): 324
  Kb: 309 nM

## Cn1c(N2CCCCC2)nc2c(N[C@H]3C[C@H]4CC[C@@H]3C4)ncnc21 (relative stereo) [Example 20, (±)-N^6-(endo-2'-norbornyl)-8-piperidinyl-9-methyladenine]
Adenosine A1 receptor [1]
  Ki: 191 nM
  Selectivity Ratio (A2 Ki /A1 Ki): > 52
Adenosine A2 receptor
  Ki: > 10000 nM
Adenosine A1 receptor [3]
  Kb: 240 nM

## CN(C)c1nc2c(N[C@H]3C[C@H]4CC[C@@H]3C4)ncnc2n1C (relative stereo) [Example 5, (+)-N^6-(endo-2'-norbornyl)-8-dimethylamino-9-methyladenine]
Adenosine A1 receptor [1]
  Ki: 3.71 nM
  Selectivity Ratio (A2 Ki /A1 Ki): 166
Adenosine A2 receptor
  Ki: 617 nM
Adenosine A1 receptor [3]
  Selectivity Ratio (A2 KB /A1 KB): 362
  Kb: 110 nM

## CSc1nc2c(NC3CCCC3)ncnc2n1C [Example 12, N^6-cyclopentyl-8-methylthio-9-methyladenine]
Adenosine A1 receptor [1]
  Ki: 2.5 nM
  Selectivity Ratio (A2 Ki /A1 Ki): 145
Adenosine A2 receptor
  Ki: 363 nM
Adenosine A1 receptor [3]
  Kb: 71 nM

## Cn1cnc2c(N[C@H]3C[C@@H]4C[C@H]3C[C@H]4O)ncnc21 (relative stereo) [Example 22]
Adenosine A1 receptor [1]
  Ki: 97.7 nM
  Selectivity Ratio (A2 Ki /A1 Ki): 323
Adenosine A2 receptor
  Ki: 31600 nM
Adenosine A1 receptor [3]
  Kb: 2950 nM

## Cn1cnc2c(N[C@H]3C[C@H]4C[C@@H]3C[C@@H]4O)ncnc21 (relative stereo) [Example 30, (±)-N^6-[exo-2',(exo-5'-hydroxy)-norbornyl]-9-methyladenine]
Adenosine A1 receptor [1]
  Ki: 363 nM
  Selectivity Ratio (A2 Ki /A1 Ki): 1,176
Adenosine A2 receptor
  Ki: 42700 nM
Adenosine A1 receptor [3]
  Kb: 1310 nM

## CN(C)c1nc2c(NC3CCCC3)ncnc2n1C [Example 8, N^6-cyclopentyl-8-dimethylamino-9-methyladenine]
Adenosine A1 receptor [1]
  Ki: 6.17 nM
  Selectivity Ratio (A2 Ki /A1 Ki): 219
Adenosine A2 receptor
  Ki: 1350 nM
Adenosine A1 receptor [3]
  Kb: 501 nM

## Cn1cnc2c(N[C@H]3C[C@@H]4C[C@H]3[C@@H](O)C4)ncnc21 (relative stereo) [Example 23]
Adenosine A1 receptor [1]
  Ki: 85.1 nM
  Selectivity Ratio (A2 Ki /A1 Ki): 371
Adenosine A2 receptor
  Ki: 31600 nM
Adenosine A1 receptor [3]
  Kb: 3800 nM

## Cn1cnc2c(N[C@H]3C[C@@H]4C[C@H]3[C@H](O)C4)ncnc21 (relative stereo) [Example 24]
Adenosine A1 receptor [1]
  Ki: 141 nM
  Selectivity Ratio (A2 Ki /A1 Ki): 152
Adenosine A2 receptor
  Ki: 21400 nM
Adenosine A1 receptor [3]
  Kb: 4680 nM

## COc1ccc2c(c1)[C@@H]1C[C@H]2[C@H](Nc2ncnc3c2ncn3C)C1 (relative stereo) [Example 41]
Adenosine A1 receptor [1]
  Ki: 209 nM
  Selectivity Ratio (A2 Ki /A1 Ki): > 48
Adenosine A2 receptor
  Ki: > 10000 nM
Adenosine A1 receptor [3]
  Kb: 64600 nM

## Cn1cnc2c(N[C@H]3C[C@H]4C[C@@H]3[C@@H](O)C4)ncnc21 (relative stereo) [Example 32]
Adenosine A1 receptor [1]
  Ki: 51.3 nM
  Selectivity Ratio (A2 Ki /A1 Ki): > 195
Adenosine A2 receptor
  Ki: > 10000 nM
Adenosine A1 receptor [3]
  Kb: 6030 nM

## Cn1cnc2c(N[C@@H]3C[C@H]4C[C@@H]3c3ccc(O)cc34)ncnc21 (relative stereo) [Example 36, (±)-N^6-[endo-2'-(5',6'-(6"-hydroxy)benzo)norbornyl]-9-methyladenine]
Adenosine A1 receptor [1]
  Ki: 2 nM
  Selectivity Ratio (A2 Ki /A1 Ki): 316
Adenosine A2 receptor
  Ki: 631 nM
Adenosine A1 receptor [3]
  Kb: 275 nM

## Cn1c(C#N)nc2c(N[C@H]3C[C@H]4CC[C@@H]3C4)ncnc21 (relative stereo) [Example 1, (±)-N^6-(endo-2'-norbornyl)-8-cyano-9-methyladenine]
Adenosine A1 receptor [1]
  Ki: 3.89 nM
  Selectivity Ratio (A2 Ki /A1 Ki): 362
Adenosine A2 receptor
  Ki: 1410 nM
Adenosine A1 receptor [3]
  Selectivity Ratio (A2 KB /A1 KB): 46
  Kb: 81 nM

## CC(C)N(C)c1nc2c(N[C@H]3C[C@@H]4C[C@H]3C[C@@H]4O)ncnc2n1C (relative stereo) [Example 16, (±)-N^6-[endo-2'-(endo-5'-hydroxy)norbornyl]-8-isopropylmethylamino-9-methyladenine]
Adenosine A1 receptor [1]
  Ki: 0.0891 nM
  Selectivity Ratio (A2 Ki /A1 Ki): 2,626
Adenosine A2 receptor
  Ki: 234 nM
Adenosine A1 receptor [3]
  Selectivity Ratio (A2 KB /A1 KB): 4450
  Kb: 4 nM

## Cn1c(Br)nc2c(N[C@H]3C[C@@H]4C[C@H]3C[C@@H]4O)ncnc21 (relative stereo) [Example 17, (±)-N^6-[endo-2'-(endo-5'-hydroxy)norbornyl]-8-bromo-9-methyladenine]
Adenosine A1 receptor [1]
  Ki: 1.17 nM
  Selectivity Ratio (A2 Ki /A1 Ki): 59
Adenosine A2 receptor
  Ki: 69.2 nM
Adenosine A1 receptor [3]
  Selectivity Ratio (A2 KB /A1 KB): 65
  Kb: 30 nM
